Test results from US11891655B2, “Probe for selectively characterizing enzymes involved in xenobiotic metabolism and method of making and using the same” (Battelle Memorial Institute, priority 2017, dated 2024).

Key:
[1] = test system: GST isoenzymes in lung lysate; test: LC-MS proteomics of probe-enriched mouse lung lysate; format: binding
[2] = target: T1, recombinant human GSTM1 (Homo sapiens, UniProt P09488); test: Concentration-dependent probe labeling of recombinant GST (SDS-PAGE); format: binding; settings: increasing probe concentrations, 30 minutes incubation, rhodamine click
T1 sequence (P09488 1-218): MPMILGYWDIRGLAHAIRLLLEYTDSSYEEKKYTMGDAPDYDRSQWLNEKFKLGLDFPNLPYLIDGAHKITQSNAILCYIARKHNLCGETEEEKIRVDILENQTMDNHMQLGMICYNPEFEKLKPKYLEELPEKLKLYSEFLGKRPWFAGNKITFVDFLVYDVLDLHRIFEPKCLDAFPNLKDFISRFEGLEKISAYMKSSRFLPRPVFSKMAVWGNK
Procedure: FIG. 15A show results from labeling glutathione transferase (GSH and GST) with probe embodiments described herein using 1 μM recombinant human GSTm1.
(§1) Concentration dependent labeling of a recombinant GST (FIG. 15A) was evaluated. The two probe embodiments, GSH-ABP-G and GST-ABP-H, were applied with increasing concentrations to the recombinant human GSTM1, a GST isoenzyme that is highly expressed in mammalian liver. […] Both probes were then applied with increasing concentrations to the cytosolic fraction of mouse liver lysate to further test probe targeting (FIG. 15B). Both probes strongly label two distinct bands at 24 kDa. The lower band is likely GSTP1, a 23.6 kDa protein highly abundant in the liver. […] To determine the specific GST isoforms targeted by each probe, LC-MS based proteomics analyses of mouse liver labeling, and labeling in the presence of specific inhibitors were performed (FIGS. 16A and 16B). […] 27 probe-targeted proteins were determined to be statistically significant targets of the GSH-ABP-G probe embodiment at a fold-change of 3 over no UV exposure controls. Of these 27 proteins, 8 are known GSTs and include members of mu, alpha, pi, theta, kappa, and zeta classes. The remaining proteins include five proteins with known GSH binding, one with known antioxidant and drug binding activity, and five proteins highly abundant in liver with no known GSH binding activity. […]

[3] = test system: cytosolic fraction of mouse liver lysate; format: binding; settings: increasing probe concentrations; SDS-PAGE
Procedure: FIG. 15B show results from labeling glutathione transferase (GSH and GST) with probe embodiments described herein using 1 μM mouse liver cytosol.
as §1

[4] = test system: GSTs in mouse liver cytosol
[5] = test system: GSTs (H site) in mouse liver cytosol; settings: read-out: EC50 of inhibition of GST-ABP-H probe labeling, 10 μM probe
[6] = test system: glucuronidase activity in the gut microbiome; format: in vivo, mouse; settings: vancomycin in drinking water 0.1 mg/mL; 4 of 5 sets of litter mates
Procedure: For the glucuronidase studies, female C57BL/6J mice age 6-8 weeks were purchased from Jackson Laboratories and housed with a 12 hour light/12 hour dark light cycle. Food (PMI 5002) and water were provided ad libitum. Mice were acclimated for 7 days prior to the onset of any treatment. During this time, littermates were co-housed. After this time, mice were placed in separate cages for antibiotic treatment. One set of littermates (n=5) were exposed to vancomycin in drinking water (0.1 mg/mL). The other set were given normal water. To monitor for adverse reactions to the antibiotics, researchers could not be blinded to treatment group during exposure, and were not blinded during subsequent analysis.
Microbial cells from the mouse gut were suspended in PBS with protease inhibitor (cOmplete EDTA-free Protease Inhibitor, Roche) and lysed via bead beating (Bullet Blender). 4-methylumbelliferyl-s-D-glucuronide (4-MUG; 1 mM) was added to 50 μL lysate (0.9 μg total protein) to achieve a final concentration of 500 μM. […] Fluorescence was measured using a plate reader (Molecular Biosciences), and amount of hydrolyzed substrate was calculated relative to a standard curve. Rate (mM/s) was determined via linear regression (GraphPad Prism) and activity was calculated as rate per μg protein. […]

[7] = test system: gut microbiota; format: in vivo, mouse; settings: vancomycin in drinking water 0.1 mg/mL
[8] = 10 μM probe, mouse liver cytosol

| Structure (SMILES) | number of GST isoenzymes enriched by probe in lung lysate [1] | labeling of recombinant human GSTM1 [2] | selectivity of labeling in mouse liver cytosol [3] | number of GSTs enriched by probe in mouse liver [4, 8] | also measured |
| --- | --- | --- | --- | --- | --- |
| C#CCNC(=O)C(Cc1ccc(C(=O)c2ccccc2)cc1)NC(=O)CSCC(NC(=O)CC[C@H](N)C(=O)O)C(=O)NCC(=O)O (some centres unmarked) [GSH-ABP-G, N5-(3-((2-((3-(4-benzoylphenyl)-1-oxo-1-(prop-2-yn-1-ylamino)propan-2-yl)amino)-2-oxoethyl)thio)-1-((carboxymethyl)amino)-1-oxopropan-2-yl)glutamine] | 3 | concentration-dependent targeting | high selectivity | 8 | number of statistically significant probe-targeted proteins ([4]; fold-change of 3 over no UV exposure controls, 10 μM probe): 27 |
| C#CCCCC(=O)Nc1cccc2c1C(=O)C(Cl)=C(Cl)C2=O [GST-ABP-H, N-(6,7-dichloro-5,8-dioxo-5,8-dihydronaphthalen-1-yl)hex-5-ynamide] | 11 | concentration-dependent targeting | more susceptible to off-target labeling | 12 |  |
| CCN1C(=O)C=CC1=O [N-ethylmaleimide, reference compound] |  |  |  |  | competition of GST-ABP-H labeling (proteomic analysis) ([4]; competitor 100 μM, mouse liver cytosol): failed to compete for binding of most GST isoenzymes |
| CCCCCCSC[C@H](NC(=O)CC[C@H](N)C(=O)O)C(=O)NCC(=O)O [S-hexylglutathione, reference compound] |  |  |  |  | EC50 [5]: 41.5 µM; fold change inhibition of GST-ABP-H and GSH-ABP-G labeling of GSTA3, M1, and P1 ([4]; S-hexylglutathione competed liver cytosol, p≤0.05): > 3.0 |
| CN[C@H](CC(C)C)C(=O)N[C@H]1C(=O)N[C@@H](CC(N)=O)C(=O)N[C@H]2C(=O)N[C@H]3C(=O)N[C@H](C(=O)N[C@H](C(=O)O)c4cc(O)cc(O)c4-c4cc3ccc4O)[C@H](O)c3ccc(c(Cl)c3)Oc3cc2cc(c3O[C@@H]2O[C@H](CO)[C@@H](O)[C@H](O)[C@H]2O[C@H]2C[C@](C)(N)[C@H](O)[C@H](C)O2)Oc2ccc(cc2Cl)[C@H]1O [Vancomycin] |  |  |  |  | glucuronidase activity in gut microbiome after treatment [6]: reduced, but did not eliminate; relative abundance of Firmicutes in gut microbiota [7]: dramatically decreased |
